# Test results: US7902373B2 (Pfizer Inc, priority 2006, dated 2011)
# pIC50: −log10 of the molar value.
# Target: human recombinant H-PGDS (Homo sapiens, UniProt O60760)
# Experiment: Fluorescence intensity h-PGDS TBA enzyme assay
# Format: biochemical
# Details: Examples up to 622 (and 3a, 3b)
# Chain of human recombinant H-PGDS (O60760 whole entry): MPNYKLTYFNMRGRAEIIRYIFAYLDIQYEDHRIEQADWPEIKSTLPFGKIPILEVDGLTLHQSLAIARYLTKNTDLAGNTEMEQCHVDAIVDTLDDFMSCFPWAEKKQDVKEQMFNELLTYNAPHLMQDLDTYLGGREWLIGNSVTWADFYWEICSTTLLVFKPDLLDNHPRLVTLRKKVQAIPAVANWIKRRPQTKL
row,pIC50,SMILES
1,9.11,"Cc1nn(-c2ccccc2)c(C)c1CN1CCC(NC(=O)c2ccc(-c3cccc(F)c3)nc2)CC1 [Example 335, N-{1-[(3,5-Dimethyl-1-phenyl-1H-pyrazol-4-yl)methyl]piperidin-4-yl}-6-(3-fluorophenyl)nicotinamide]"
2,8.74,"CC(CCCC(C)(C)O)CCN1CCC(NC(=O)c2ccc(-c3cccc(F)c3)nc2)CC1 (stereo not drawn) [Example 336, 6-(3-Fluorophenyl)-N-[1-(7-hydroxy-3,7-dimethyloctyl)piperidin-4-yl]nicotinamide]"
3,8.85,"O=C(NC1CCN(Cc2nc3ccccc3[nH]2)CC1)c1ccc(-c2cccc(F)c2)nc1 [Example 337, N-[1-(1H-Benzimidazol-2-ylmethyl)piperidin-4-yl]-6-(3-fluorophenyl)nicotinamide]"
4,7.20,CCOc1ccc2nc(CN3CCC(NC(=O)c4ccc(-c5cccc(F)c5)nc4)CC3)ccc2c1 [Example 338]
5,8.93,"COC(=O)Cn1cc(CN2CCC(NC(=O)c3ccc(-c4cccc(F)c4)nc3)CC2)c2ccccc21 [Example 339, Methyl (3-{[4-({[6-(3-fluorophenyl)pyridin-3-yl]carbonyl}amino)piperidin-1-yl]methyl}-1H-indol-1-yl)acetate]"
6,8.93,"O=C(NC1CCN(Cc2nc3c(s2)CCCC3)CC1)c1ccc(-c2cccc(F)c2)nc1 [Example 340, 6-(3-Fluorophenyl)-N-[1-(4,5,6,7-tetrahydro-1,3-benzothiazol-2-ylmethyl)piperidin-4-yl]nicotinamide]"
7,9.31,"O=C(NC1CCN(CC2=Cc3ccccc3OC2)CC1)c1ccc(-c2cccc(F)c2)nc1 [Example 341, N-[1-(2H-Chromen-3-ylmethyl)piperidin-4-yl]-6-(3-fluorophenyl)nicotinamide]"
8,9.55,"O=C(NC1CCN(Cc2ccccc2-c2cncnc2)CC1)c1ccc(-c2cccc(F)c2)nc1 [Example 342, 6-(3-Fluorophenyl)-N-[1-(2-pyrimidin-5-ylbenzyl)piperidin-4-yl]nicotinamide]"
9,8.72,"O=C(NC1CCN(Cc2cccn3cc(Br)nc23)CC1)c1ccc(-c2cccc(F)c2)nc1 [Example 343, N-{1-[(2-Bromoimidazo[1,2-a]pyridin-8-yl)methyl]piperidin-4-yl}-6-(3-fluorophenyl)nicotinamide]"
10,9.76,"Cc1onc(-c2ccccc2)c1CN1CCC(NC(=O)c2ccc(-c3cccc(F)c3)nc2)CC1 [Example 344, 6-(3-Fluorophenyl)-N-{1-[(5-methyl-3-phenylisoxazol-4-yl)methyl]piperidin-4-yl}nicotinamide]"
11,9.29,"CC(C)(C)OC(=O)N1CCC(CN2CCC(NC(=O)c3ccc(-c4cccc(F)c4)nc3)CC2)C1 (stereo not drawn) [Example 345, tert-Butyl 3-{[4-({[6-(3-fluorophenyl)pyridin-3-yl]carbonyl}amino)piperidin-1-yl]methyl}pyrrolidine-1-carboxylate]"
12,8.39,"CC(C)(C)C(=O)Nc1ncccc1CN1CCC(NC(=O)c2ccc(-c3cccc(F)c3)nc2)CC1 [Example 346, N-[1-({2-[(2,2-Dimethylpropanoyl)amino]pyridin-3-yl}methyl)piperidin-4-yl]-6-(3-fluorophenyl)nicotinamide]"
13,9.24,"CC(C)(CNC(=O)OC(C)(C)C)CN1CCC(NC(=O)c2ccc(-c3cccc(F)c3)nc2)CC1 [Example 347, tert-Butyl {3-[4-({[6-(3-fluorophenyl)pyridin-3-yl]carbonyl}amino)piperidin-1-yl]-2,2-dimethylpropyl}carbamate]"
14,9.21,"O=C(NC1CCN(Cc2c(F)c(F)cc(F)c2F)CC1)c1ccc(-c2cccc(F)c2)nc1 [Example 348, 6-(3-Fluorophenyl)-N-[1-(2,3,5,6-tetrafluorobenzyl)piperidin-4-yl]nicotinamide]"
15,8.53,"O=C(NC1CCN(Cc2c[nH]c3c(F)c(F)c(F)c(F)c23)CC1)c1ccc(-c2cccc(F)c2)nc1 [Example 349, 6-(3-Fluorophenyl)-N-{1-[(4,5,6,7-tetrafluoro-1H-indol-3-yl)methyl]piperidin-4-yl}nicotinamide]"
16,9.61,"O=C(NC1CCN(CC2CCOC2)CC1)c1ccc(-c2cccc(F)c2)nc1 (stereo not drawn) [Example 350, 6-(3-Fluorophenyl)-N-[1-(tetrahydrofuran-3-ylmethyl)piperidin-4-yl]nicotinamide]"
17,9.27,"Cc1cc(CN2CCC(NC(=O)c3ccc(-c4cccc(F)c4)nc3)CC2)no1 [Example 351, 6-(3-Fluorophenyl)-N-{1-[(5-methylisoxazol-3-yl)methyl]piperidin-4-yl}nicotinamide]"
18,9.20,"Cn1nccc1CN1CCC(NC(=O)c2ccc(-c3cccc(F)c3)nc2)CC1 [Example 352, 6-(3-Fluorophenyl)-N-{1-[(1-methyl-1H-pyrazol-5-yl)methyl]piperidin-4-yl}nicotinamide]"
19,9.02,"COc1ccc(CN2CCC(NC(=O)c3ccc(-c4cccc(F)c4)nc3)CC2)cn1 [Example 353, 6-(3-Fluorophenyl)-N-{1-[(6-methoxypyridin-3-yl)methyl]piperidin-4-yl}nicotinamide]"
20,8.53,"Cc1ccc(CN2CCC(NC(=O)c3ccc(-c4cccc(F)c4)nc3)CC2)cn1 [Example 354, 6-(3-Fluorophenyl)-N-{1-[(6-methylpyridin-3-yl)methyl]piperidin-4-yl}nicotinamide]"

row,pIC50,SMILES
1,9.29,"Cc1cc(CN2CCC(NC(=O)c3ccc(-c4cccc(F)c4)nc3)CC2)ccn1 [Example 355, 6-(3-Fluorophenyl)-N-{1-[(2-methylpyridin-4-yl)methyl]piperidin-4-yl}nicotinamide]"
2,8.70,"Cc1c(CN2CCC(NC(=O)c3ccc(-c4cccc(F)c4)nc3)CC2)cnn1-c1ccccc1 [Example 356, 6-(3-Fluorophenyl)-N-{1-[(5-methyl-1-phenyl-1H-pyrazol-4-yl)methyl]piperidin-4-yl}nicotinamide]"
3,8.18,"Cc1nc(-c2ccccc2)ncc1CN1CCC(NC(=O)c2ccc(-c3cccc(F)c3)nc2)CC1 [Example 357, 6-(3-Fluorophenyl)-N-{1-[(4-methyl-2-phenylpyrimidin-5-yl)methyl]piperidin-4-yl}nicotinamide]"
4,8.76,"O=C(NC1CCN(Cc2ccc(Oc3ccccc3)nc2)CC1)c1ccc(-c2cccc(F)c2)nc1 [Example 358, 6-(3-Fluorophenyl)-N-{1-[(6-phenoxypyridin-3-yl)methyl]piperidin-4-yl}nicotinamide]"
5,9.35,"O=C(NC1CCN(Cc2ccno2)CC1)c1ccc(-c2cccc(F)c2)nc1 [Example 359, 6-(3-Fluorophenyl)-N-[1-(isoxazol-5-ylmethyl)piperidin-4-yl]nicotinamide]"
6,8.56,"CCC(C)CCN1CCC(NC(=O)c2ccc(-c3cccc(F)c3)nc2)CC1 (stereo not drawn) [Example 360, 6-(3-Fluorophenyl)-N-[1-(3-methylpentyl)piperidin-4-yl]nicotinamide]"
7,8.87,"Cc1nn(C(C)C)c(C)c1CN1CCC(NC(=O)c2ccc(-c3cccc(F)c3)nc2)CC1 [Example 361, 6-(3-Fluorophenyl)-N-{1-[(1-isopropyl-3,5-dimethyl-1H-pyrazol-4-yl)methyl]piperidin-4-yl}nicotinamide]"
8,8.98,"Cc1nn(-c2ccc(F)cc2)c(C)c1CN1CCC(NC(=O)c2ccc(-c3cccc(F)c3)nc2)CC1 [Example 362, 6-(3-Fluorophenyl)-N-(1-{[1-(4-fluorophenyl)-3,5-dimethyl-1H-pyrazol-4-yl]methyl}piperidin-4-yl)nicotinamide]"
9,9.52,"O=C(NC1CCN(Cc2ccon2)CC1)c1ccc(-c2cccc(F)c2)nc1 [Example 363, 6-(3-Fluorophenyl)-N-[1-(isoxazol-3-ylmethyl)piperidin-4-yl]nicotinamide]"
10,8.39,"COc1ccc(CN2CCC(NC(=O)c3ccc(-c4cccc(F)c4)nc3)CC2)cc1CN(C)C [Example 364, N-(1-{3-[(Dimethylamino)methyl]-4-methoxybenzyl}piperidin-4-yl)-6-(3-fluorophenyl)nicotinamide]"
11,9.89,"COc1ccc(-n2ccnc2CN2CCC(NC(=O)c3ccc(-c4cccc(F)c4)nc3)CC2)cc1 [Example 365, 6-(3-Fluorophenyl)-N-(1-{[1-(4-methoxyphenyl)-1H-imidazol-2-yl]methyl}piperidin-4-yl)nicotinamide]"
12,8.62,CC(C)c1cc(CN2CCC(NC(=O)c3ccc(-c4cccc(F)c4)nc3)CC2)n[nH]1 [Example 366]
13,9.15,"O=C(NC1CCN(Cc2cccc(-n3cccn3)c2)CC1)c1ccc(-c2cccc(F)c2)nc1 [Example 367, 6-(3-Fluorophenyl)-N-{1-[3-(1H-pyrazol-1-yl)benzyl]piperidin-4-yl}nicotinamide]"
14,8.69,"Nc1ncc(CN2CCC(NC(=O)c3ccc(-c4cccc(F)c4)nc3)CC2)cn1 [Example 368, N-{1-[(2-Aminopyrimidin-5-yl)methyl]piperidin-4-yl}-6-(3-fluorophenyl)nicotinamide]"
15,8.87,"Cc1cc(C)n(-c2cccc(CN3CCC(NC(=O)c4ccc(-c5cccc(F)c5)nc4)CC3)c2)n1 [Example 369, N-{1-[3-(3,5-Dimethyl-1H-pyrazol-1-yl)benzyl]piperidin-4-yl}-6-(3-fluorophenyl)nicotinamide]"
16,9.34,"O=C(NC1CCN(Cc2cc(F)cc3c2OCOC3)CC1)c1ccc(-c2cccc(F)c2)nc1 [Example 370, N-{1-[(6-Fluoro-4H-1,3-benzodioxin-8-yl)methyl]piperidin-4-yl}-6-(3-fluorophenyl)nicotinamide]"
17,9.36,"O=C(NC1CCN(Cc2cccc3nsnc23)CC1)c1ccc(-c2cccc(F)c2)nc1 [Example 371, N-[1-(2,1,3-Benzothiadiazol-4-ylmethyl)piperidin-4-yl]-6-(3-fluorophenyl)nicotinamide]"
18,9.01,"Cc1cc(CN2CCC(NC(=O)c3ccc(-c4cccc(F)c4)nc3)CC2)n(C)n1 [Example 372, N-{1-[(1,3-Dimethyl-1H-pyrazol-5-yl)methyl]piperidin-4-yl}-6-(3-fluorophenyl)nicotinamide]"
19,8.63,"O=C(NC1CCN(Cc2csc(-c3ccccc3)n2)CC1)c1ccc(-c2cccc(F)c2)nc1 [Example 373, 6-(3-Fluorophenyl)-N-{1-[(2-phenyl-1,3-thiazol-4-yl)methyl]piperidin-4-yl}nicotinamide]"
